# Reference: US7273710B2, “Method for screening MCH receptor antagonist/agonist” (Takeda Pharmaceutical Company Limited, priority 2000, dated 2007)
# Positions of bridges follow the written chain, without caps; N, C: chain ends. No end group written: not given here.
# Experiments:
# [1] = target: T1, human SLT (Homo sapiens, UniProt Q969V1); experiment: Inhibition of forskolin-stimulated cAMP production in human SLT-expressing CHO cells; assay type: cell-based; settings: CHO/hSLT cells, 2 μM forskolin, FIG. 2
# T1 construct: expressed in transfected cells; host or cells: membrane fraction of CHO/hSLT cells (CHO dhfr- transfected with pAKKO-hSLT)
# T1 sequence (Q969V1 whole entry): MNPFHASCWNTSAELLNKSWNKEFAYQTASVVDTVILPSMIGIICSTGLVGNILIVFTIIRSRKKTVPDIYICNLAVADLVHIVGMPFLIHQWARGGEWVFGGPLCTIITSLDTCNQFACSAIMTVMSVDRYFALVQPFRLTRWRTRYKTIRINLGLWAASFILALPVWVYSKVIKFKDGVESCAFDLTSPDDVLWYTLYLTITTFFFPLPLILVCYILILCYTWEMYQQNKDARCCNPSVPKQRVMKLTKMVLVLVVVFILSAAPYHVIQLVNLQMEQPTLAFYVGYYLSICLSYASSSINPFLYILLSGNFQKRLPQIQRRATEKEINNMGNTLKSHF
# [2] = target: T1, human SLT; experiment: Release of [3H] arachidonic acid metabolite in human SLT-expressing CHO cells; assay type: cell-based; settings: CHO/hSLT cells, FIG. 6
# [3] = target: T1, human SLT; experiment: FLIPR assay of intracellular Ca ion level in human SLT-expressing CHO cells; assay type: cell-based; settings: CHO/hSLT cells, Fluo 3-AM, FIG. 5
# [4] = target: T1, human SLT; experiment: Receptor binding assay with [125I]-labeled MCH (4-19) on cell membrane fraction of human SLT-expressing CHO cells; settings: membrane fractions from CHO/hSLT clones #1, 26, 36, 25° C., 60 minutes, FIG. 3
molecule,measurement,setting,value
"CSCC[C@@H]1NC(=O)[C@@H](NC(=O)[C@H](CCCNC(=N)N)NC(=O)[C@H](CC(C)C)NC(=O)[C@H](CCSC)NC(=O)[C@H](CC(=O)O)NC(=O)[C@H](Cc2ccccc2)NC(=O)[C@@H](N)CC(=O)O)CSSC[C@@H](C(=O)N[C@@H](Cc2c[nH]c3ccccc23)C(=O)N[C@@H](CCC(N)=O)C(=O)N[C@H](C(=O)O)C(C)C)NC(=O)[C@@H]2CCCN2C(=O)[C@H](CCCNC(=N)N)NC(=O)[C@H](Cc2ccc(O)cc2)NC(=O)[C@H](C(C)C)NC(=O)[C@H](CCCNC(=N)N)NC(=O)CNC(=O)[C@H](CC(C)C)NC1=O [MCH, Asp-Phe-Asp-Met-Leu-Arg-Cys-Met-Leu-Gly-Arg-Val-Tyr-Arg-Pro-Cys-Trp-Gln-V al]",concentration at which the intracellular cAMP was clearly decreased,"[1]; 37° C., 30 minutes",30 pM
same,"inhibition of cAMP production, concentration dependence",[1],decreased in a dose-dependent manner
same,activity to induce the release of the arachidonic acid metabolite,[2],in a does-dependent manner
same,increase of the intracellular Ca ion level,[3],increases the intracellular Ca ion level in human SLT-expressing CHO cells in a manner dependent on the concentration
[^125I]-[N-3-(4-hydroxy-3-iodophenyl)propionyl)-Met^4]-MCH (4-19) ({3‑(4-hydroxy-3-(125I)iodophenyl)propionyl}-MLRCMLGRVYRPCWQV; disulfide 4-13) [[^125I]-labeled MCH (4-19)],specific binding to cell membrane fraction,[4],dependent on the concentration of membrane fraction was observed
